One may read the GI50 as the concentration giving 50% growth inhibition.

Molecules are shown by their SMILES. Where two headings read alike, the source gives them in different places.

Experiment [1] deals with T-Rex 293 cell line SC3 cells having increased expression of androgen receptor protein. As to the kind of experiment: Cellular growth inhibition, T-Rex 293 SC3 cells with increased androgen receptor expression (doxycycline), CellTiter-Glo. The experiment is classed as cell-based. Conditions: T-Rex 293 SC3 cells with increased androgen receptor expression (exposed to 10 ng/mL doxycycline), 72 hours, CellTiter-Glo; read-out: GI50. The method, then: (§1) The following types of cells were prepared for this experiment: (i) a T-Rex 293 cell line having increased expression of androgen receptor protein due to exposure to doxycycline and (ii) a T-Rex 293 cell line lacking increased expression of androgen receptor protein. Ability of the test compounds to inhibit proliferation of the foregoing cell types was evaluated according to the procedures set forth below.
(§2) The doxycycline-inducible androgen receptor protein expressing cell line was established using the following protocol: T-Rex 293 cells were purchased from Invitrogen (Cat #R71007) and transfected using Lipofectamine 2000 with the wild-type androgen receptor protein sequence cloned into the pcDNA4/TO vector. Transfected cells were selected using 400 μg/mL Zeocin (Invitrogen Cat #R25001). Following selection, single clones were raised and maintained in Dulbecco's Modified Eagle Medium (DMEM) supplemented with 10% w/w Tetracycline-free fetal bovine serum (FBS) and 250 μg/mL Zeocin. Clones were analyzed for expression of androgen receptor protein in the presence and absence of 10 ng/ml doxycycline (Sigma Cat #D9891), and a single doxycycline-inducible clone (hereinafter “SC3”) was selected for use in downstream assays.
(§3) The SC3 cells were seeded on poly-D-lysine coated, black clear-bottom 384-well plates at 2500/well, in 25 μL Phenol Red Free Dulbecco's Modified Eagle Medium (DMEM) supplemented with 10% w/w charcoal-dextran treated fetal bovine serum (FBS) and 1% w/w pen-strep, with or without 10 ng/mL doxycycline. Pen-Strep is a commercially available mixture of penicillin G and streptomycin, which is used in mammalian cell culture media to prevent bacterial contamination. Phenol Red Free Dulbecco's Modified Eagle Medium (DMEM) supplemented with 10% w/w charcoal-dextran treated fetal bovine serum (FBS) and 1% w/w pen-strep, with or without 10 ng/mL doxycycline is herein referred to as Treatment Medium. Following seeding of cells in the plates, the plates were spun at 300×g for 30 seconds, then equilibrated to room temperature for 30 minutes, and then deposited in a humidified tissue culture incubator maintained at 37° C. with 5% CO2.
(§4) At 24 hours after seeding of the cells, dilutions of test compound were prepared in DMSO and dissolved in Treatment Medium, to achieve a final DMSO concentration of 0.5% w/w, thereby providing the Test Compound Solution. A 25 μL aliquot of the Test Compound Solution was added to cells in the well plates. An equal volume of a solution containing DMSO and Treatment Medium was used as a negative control. Following treatment of cells with Test Compound Solution or said equal volume of a solution containing DMSO and Treatment Medium, the plates were spun at 300×g for 30 seconds, and then left in an incubator for 72 hours.
(§5) At the end of the treatment duration, cell viability was quantified with CellTiter-Glo 2.0 reagent (Promega Cat #G9243). For this purpose, plates were equilibrated to room temperature for 30 minutes, and then 25 μL of CellTiter-Glo 2.0 reagent was added to cells in the plate wells. Plates were then agitated on a shaker for two minutes at 500 rpm and subsequently incubated at room temperature for 10 minutes. Following incubation, the plates were spun at 3000×g for 30 seconds, then sealed with an optical adhesive cover, and luminescence readings were measured with an EnVision Plate Reader.
(§6) Data was normalized using zero luminescence for baseline. A four-parameter non-linear regression curve fit was applied to dose-response data in GraphPad Prism data analysis software to determine the half-maximal growth inhibitory concentration (GI50) for each test compound.

Experiment [2] deals with T-Rex 293 cell line SC3 cells lacking increased expression of androgen receptor protein. Description: Cellular growth inhibition, T-Rex 293 SC3 cells lacking increased androgen receptor expression (no doxycycline), CellTiter-Glo. The experiment is classed as cell-based. As to conditions: T-Rex 293 SC3 cells lacking increased androgen receptor expression (not exposed to doxycycline), 72 hours, CellTiter-Glo; read-out: GI50. As for the experimental part: as §1, §2, §3, §4, §5, §6
(In ATP-based viability assays light output follows the ATP content of the culture.)

The subject of a further experiment is VCaP cells. Description: Cellular growth inhibition assay for VCaP cells, CellTiter-Glo. The experiment is classed as cell-based, human. Conditions: VCaP cells, 72 hours, CellTiter-Glo, read-out: GI50. The method, then:
VCaP cells were purchased from American Type Cell Culture (ATCC Cat #CRL2876) and then seeded on poly-D-lysine coated, black clear-bottom 384-well plates at 5000/well in 25 μL Dulbecco's Modified Eagle Medium (DMEM) supplemented with 10% w/w Fetal bovine serum (FBS) and 1% w/w Pen-Strep. Pen-Strep is a commercially available mixture of penicillin G and streptomycin, which is used in mammalian cell culture media to prevent bacterial contamination. Dulbecco's Modified Eagle Medium (DMEM) supplemented with 10% w/w fetal bovine serum (FBS) and 1% w/w Pen-Strep is herein referred to as Treatment Medium. Following seeding of cells in the plates, the plates were spun at 300×g for 30 seconds, then equilibrated to room temperature for 30 minutes, and then deposited in a humidified tissue culture incubator maintained at 37° C. with 5% CO2.
as §4, §5, §6

A further experiment relates to T47D cells. Description: Cellular growth inhibition assay for T47D cells, CellTiter-Glo. The experiment is classed as cell-based, human. As to conditions: 72 hours treatment, CellTiter-Glo 2.0. The method, then: T47D cells were purchased from American Type Cell Culture (ATCC Cat #HTB-133) and then seeded on poly-D-lysine coated, black clear-bottom 384-well plates at 3000/well in 25 μL Dulbecco's Modified Eagle Medium (DMEM) supplemented with 10% w/w Fetal bovine serum (FBS), 0.2 units/mL recombinant human insulin (Gibco Cat #12585014), and 1% w/w Pen-Strep. Pen-Strep is a commercially available mixture of penicillin G and streptomycin, which is used in mammalian cell culture media to prevent bacterial contamination. Dulbecco's Modified Eagle Medium (DMEM) supplemented with 10% w/w fetal bovine serum (FBS), 0.2 units/mL recombinant human insulin, and 1% w/w Pen-Strep is herein referred to as Treatment Medium. Following seeding of cells in the plates, the plates were spun at 300×g for 30 seconds, then equilibrated to room temperature for 30 minutes, and then deposited in a humidified tissue culture incubator maintained at 37° C. with 5% CO2.
as §4
as §5, with “Reader (Perkin Elmer).” for “Reader.”
as §6

In the case of `CCS(=O)(=O)Nc1ccc(Oc2cccc(N3CC(N4CCN(c5ccc(C(=O)N[C@H]6CC[C@H](Oc7ccc(C#N)c(Cl)c7)CC6)nn5)CC4)C3)c2F)c(-c2cn(C)c(=O)c3[nH]ccc23)c1` [I-12], the 50% growth inhibitory concentration (GI50) is less than 500 nM in experiment [1], more than 3000 nM in experiment [2], less than 500 nM in the experiment with VCaP cells (Homo sapiens) and less than 500 nM in the experiment on T47D cells (Homo sapiens).
With `CCS(=O)(=O)Nc1ccc(Oc2cccc(CCC3CCN(c4ccc(C(=O)N[C@H]5CC[C@H](Oc6ccc(C#N)c(Cl)c6)CC5)nn4)CC3)c2F)c(-c2cn(C)c(=O)c3[nH]ccc23)c1` [I-21], the GI50 in experiment [1] is less than 500 nM; in experiment [2] it was more than 3000 nM; in the experiment with VCaP cells (Homo sapiens), less than 500 nM; with T47D cells (Homo sapiens) it was less than 500 nM.
Take `CCS(=O)(=O)Nc1ccc(Oc2cccc(COC3CCN(c4ccc(C(=O)N[C@H]5CC[C@H](Oc6ccc(C#N)c(Cl)c6)CC5)nn4)CC3)c2F)c(-c2cn(C)c(=O)c3[nH]ccc23)c1` [I-26]: the GI50 is less than 500 nM in experiment [1], more than 3000 nM in experiment [2], less than 500 nM with VCaP cells (Homo sapiens) and less than 500 nM with T47D cells (Homo sapiens).
`CCS(=O)(=O)c1ccc(Oc2ccc(OCC3CCN(c4ccc(C(=O)N[C@H]5CC[C@H](Oc6ccc(C#N)c(Cl)c6)CC5)nn4)CC3)cc2)c(-c2cn(C)c(=O)c3[nH]ccc23)c1` [I-41]: the concentration for 50% growth inhibition (GI50) (in experiment [1]; in experiment [2]; in the experiment with VCaP cells; with T47D cells) was less than 500 nM each time.
For `CCS(=O)(=O)c1ccc(Oc2ccc(OCC3CCN(c4ccc(C(=O)N[C@H]5CC[C@H](Oc6ccc(C#N)c(Cl)c6)CC5)nn4)CC3)cc2F)c(-c2cn(C)c(=O)c3[nH]ccc23)c1` [I-43], the GI50 (in experiment [1]; in experiment [2]; in the experiment with VCaP cells; in the experiment on T47D cells) was less than 500 nM in each case.
Regarding `CN(CCCCc1ccc(Oc2ccc(C(C)(C)O)cc2-c2cn(C)c(=O)c3[nH]ccc23)cc1)c1ccc(C(=O)N[C@H]2CC[C@H](Oc3ccc(C#N)c(Cl)c3)CC2)nn1` [I-122], the 50% growth inhibitory concentration (GI50) in the experiment with VCaP cells and with T47D cells was less than 500 nM throughout.
Take `Cn1cc(-c2cc(C(C)(C)O)ccc2Oc2ccc(CCCC3CCN(c4ccc(C(=O)N[C@H]5CC[C@H](Oc6ccc(C#N)c(Cl)c6)CC5)nn4)CC3)cc2)c2cc[nH]c2c1=O` [I-124]: the GI50 in the experiment with VCaP cells (Homo sapiens) and in the experiment with T47D cells (Homo sapiens) was less than 500 nM each time.
For the molecule `CCS(=O)(=O)c1ccc(-c2cn(C)c(=O)c3[nH]ccc23)c(-n2cc(CCC3CCN(c4ccc(C(=O)NC5CCC(Oc6ccc(C#N)c(Cl)c6)CC5)nn4)CC3)ncc2=O)c1` (stereo not drawn) [I-238, N-[4-(3-chloro-4-cyano-phenoxy)cyclohexyl]-6-[4-[2-[4-[5-ethylsulfonyl-2-(6-methyl-7-oxo-1H-pyrrolo[2,3-c]pyridin-4-yl)phenyl]-5-oxo-pyrazin-2-yl]ethyl]-1-piperidyl]pyridazine-3-carboxamide], the values for the GI50 (in experiment [1]; in experiment [2]; in the experiment with VCaP cells (Homo sapiens)) were more than 3000 nM, more than 3000 nM and less than 500 nM, respectively.
Regarding `Cn1cc(-c2cc(Br)ccc2Oc2ccc(CCC3CCN(c4ccc(C(=O)NC5CCC(Oc6ccc(C#N)c(Cl)c6)CC5)nn4)CC3)cc2)c2cc[nH]c2c1=O` (stereo not drawn) [I-241, 6-[4-[2-[4-[4-bromo-2-(6-methyl-7-oxo-1H-pyrrolo[2,3-c]pyridin-4-yl)phenoxy]phenyl]ethyl]-1-piperidyl]-N-[4-(3-chloro-4-cyano-phenoxy)cyclohexyl]pyridazine-3-carboxamide], the 50% growth inhibitory concentration (GI50) in experiment [1] was less than 500 nM; in experiment [2], more than 3000 nM; in the experiment with VCaP cells (Homo sapiens), less than 500 nM.
Consider `CCS(=O)(=O)Nc1ccc(Oc2ccc(CCC3CCN(c4ccc(C(=O)NC5CCC(Oc6ccc(C#N)c(Cl)c6)CC5)nn4)CC3)c(F)c2)c(-c2cn(C)c(=O)c3ccccc23)c1` (stereo not drawn) [I-242, N-[4-(3-chloro-4-cyano-phenoxy)cyclohexyl]-6-[4-[2-[4-[4-(ethylsulfonylamino)-2-(2-methyl-1-oxo-4-isoquinolyl)phenoxy]-2-fluoro-phenyl]ethyl]-1-piperidyl]pyridazine-3-carboxamide], for which the GI50 in experiment [1] is less than 500 nM; in experiment [2] it was more than 3000 nM; in the experiment with VCaP cells (Homo sapiens), less than 500 nM.
For the molecule `CCS(=O)(=O)c1ccc(Oc2ccc(CCC3CCN(c4ccc(C(=O)NC5CCC(Oc6ccc(C#N)c(Cl)c6)CC5)nn4)CC3)c(F)c2)c(-c2cn(C)c(=O)c3ccccc23)c1` (stereo not drawn) [I-243, N-[4-(3-chloro-4-cyano-phenoxy)cyclohexyl]-6-[4-[2-[4-[4-ethylsulfonyl-2-(2-methyl-1-oxo-4-isoquinolyl)phenoxy]-2-fluoro-phenyl]ethyl]-1-piperidyl]pyridazine-3-carboxamide], the GI50 is less than 500 nM in experiment [1], more than 3000 nM in experiment [2] and less than 500 nM in the experiment with VCaP cells (Homo sapiens).
With `Cn1cc(-c2cc(C(C)(C)O)ccc2OC2CC(OCC3CCN(c4ccc(C(=O)NC5CCC(Oc6ccc(C#N)c(Cl)c6)CC5)nn4)CC3)C2)c2ccccc2c1=O` (stereo not drawn) [I-247, N-[4-(3-chloro-4-cyano-phenoxy)cyclohexyl]-6-[4-[[3-[4-(1-hydroxy-1-methyl-ethyl)-2-(2-methyl-1-oxo-4-isoquinolyl)phenoxy]cyclobutoxy]methyl]-1-piperidyl]pyridazine-3-carboxamide], the values for the GI50 (in experiment [1]; in experiment [2]; in the experiment on VCaP cells (Homo sapiens)) were less than 500 nM, more than 3000 nM and less than 500 nM, respectively.
With `Cn1cc(-c2ccccc2Oc2ccc(OCC3CCN(c4ccc(C(=O)N[C@H]5CC[C@H](Oc6ccc(C#N)c(Cl)c6)CC5)nn4)CC3)cc2)c2cc[nH]c2c1=O` [I-255, N-[4-(3-chloro-4-cyano-phenoxy)cyclohexyl]-6-[4-[[4-[2-(6-methyl-7-oxo-1H-pyrrolo[2,3-c]pyridin-4-yl)phenoxy]phenoxy]methyl]-1-piperidyl]pyridazine-3-carboxamide], the GI50 in experiment [1] was less than 500 nM; in experiment [2], more than 3000 nM; in the experiment with VCaP cells (Homo sapiens), less than 500 nM.

These data come from patent US20250388575A1, “HETEROBIFUNCTIONAL COMPOUNDS AND METHODS OF TREATING DISEASE” (Halda Therapeutics OpCo, Inc., priority 2022, published 2025).
